From ChEMBL document CHEMBL1149262, “Monoamine transporter binding, locomotor activity, and drug discrimination properties of 3-(4-substituted-phenyl)tropane-2-carboxylic acid methyl ester isomers” (J Med Chem, 2004)
Activity calls are given as the source filed them. No cut-off for these calls is given here.

Legend:
Rattus norvegicus [1] = test: Drug discrimination effect in CD Albino rat assessed as percent of rat choosing cocaine lever at 3 mg/kg, ip; assay type: functional; details: route intraperitoneal
Mus musculus [2] = test: Activity in CD1 mouse assessed as circling at 100 mg/kg, ip after 4 hrs; assay type: functional, organism-based; set-up: dose 100 mg/kg
Mus musculus [3] = test: Activity in CD1 mouse assessed as stereotypy at 10 mg/kg, ip after 4 hrs; assay type: functional, organism-based; set-up: dose 10 mg/kg
Rattus norvegicus [4] = test: Drug discrimination effect in CD Albino rat assessed as percent of rat choosing cocaine lever at 10 mg/kg, ip; assay type: functional; details: route intraperitoneal
Mus musculus [5] = test: Locomotor activity in CD1 mouse assessed as stimulation at 3 mg/kg, ip after 4 hrs relative to control; assay type: functional; details: route intraperitoneal
Mus musculus [6] = test: Activity in CD1 mouse assessed as hyperactivity at 100 mg/kg, ip after 4 hrs; assay type: functional, organism-based; set-up: dose 100 mg/kg
Mus musculus [7] = test: Locomotor activity in CD1 mouse assessed as stimulation at 3 mg/kg, ip after 2 hrs relative to control; assay type: functional; details: route intraperitoneal
Mus musculus [8] = test: Locomotor activity in CD1 mouse assessed as stimulation at 30 mg/kg, ip after 2 hrs relative to control; assay type: functional; details: route intraperitoneal
Mus musculus [9] = test: Locomotor activity in CD1 mouse assessed as stimulation at 3 mg/kg, ip after 1 hr relative to control; assay type: functional; details: route intraperitoneal
[10] = biological target: Sodium-dependent dopamine transporter (Homo sapiens, UniProt Q01959); test: Displacement of [3H]WIN-35428 from DAT
Sequence of Sodium-dependent dopamine transporter (Q01959 whole entry): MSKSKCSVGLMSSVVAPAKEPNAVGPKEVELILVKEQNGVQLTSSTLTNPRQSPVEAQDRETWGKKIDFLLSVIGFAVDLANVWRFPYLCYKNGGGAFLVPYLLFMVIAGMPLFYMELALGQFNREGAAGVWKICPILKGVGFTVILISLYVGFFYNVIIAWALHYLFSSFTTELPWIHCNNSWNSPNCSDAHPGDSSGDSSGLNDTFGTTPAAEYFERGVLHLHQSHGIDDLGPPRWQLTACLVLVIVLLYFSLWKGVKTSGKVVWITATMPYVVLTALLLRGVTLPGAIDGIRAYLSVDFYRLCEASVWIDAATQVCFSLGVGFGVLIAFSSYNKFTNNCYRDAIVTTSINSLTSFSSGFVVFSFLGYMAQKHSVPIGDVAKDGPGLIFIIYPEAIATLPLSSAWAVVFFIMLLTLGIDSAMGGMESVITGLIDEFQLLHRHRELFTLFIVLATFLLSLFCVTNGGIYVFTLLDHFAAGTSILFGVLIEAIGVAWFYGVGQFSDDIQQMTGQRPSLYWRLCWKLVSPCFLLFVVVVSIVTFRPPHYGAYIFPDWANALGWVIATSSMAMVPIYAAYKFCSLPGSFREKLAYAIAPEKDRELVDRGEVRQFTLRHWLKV

Mus musculus [11] = test: Locomotor activity in CD1 mouse assessed as stimulation at 30 mg/kg, ip after 1 hr relative to control; assay type: functional; details: route intraperitoneal
Rattus norvegicus [12] = test: Cocaine discrimination in ip dosed CD Albino rat; assay type: functional
Mus musculus [13] = test: Locomotor activity in CD1 mouse assessed as stimulation at 100 mg/kg, ip after 1 hr relative to control; assay type: functional; details: route intraperitoneal
Mus musculus [14] = test: Locomotor activity in CD1 mouse assessed as stimulation at 100 mg/kg, ip after 4 hrs relative to control; assay type: functional; details: route intraperitoneal
Mus musculus [15] = test: Locomotor activity in CD1 mouse assessed as stimulation at 30 mg/kg, ip after 4 hrs relative to control; assay type: functional; details: route intraperitoneal
Mus musculus [16] = test: Activity in CD1 mouse assessed as slight or intermittent hyperactivity at 10 mg/kg, ip after 4 hrs; assay type: functional, organism-based; set-up: dose 10 mg/kg
Mus musculus [17] = test: Locomotor activity in CD1 mouse assessed as stimulation at 10 mg/kg, ip after 3 hrs relative to control; assay type: functional; details: route intraperitoneal
Mus musculus [18] = test: Locomotor activity in ip dosed CD1 mouse in peak hour; assay type: functional
Rattus norvegicus [19] = test: Drug discrimination effect in CD Albino rat assessed as percent of rat choosing cocaine lever at 5.6 mg/kg, ip; assay type: functional; details: route intraperitoneal
Mus musculus [20] = test: Locomotor activity in CD1 mouse assessed as stimulation at 3 mg/kg, ip after 3 hrs relative to control; assay type: functional; details: route intraperitoneal
Mus musculus [21] = test: Locomotor activity in CD1 mouse assessed as stimulation at 10 mg/kg, ip after 2 hrs relative to control; assay type: functional; details: route intraperitoneal
Mus musculus [22] = test: Locomotor activity in CD1 mouse assessed as stimulation at 10 mg/kg, ip after 4 hrs relative to control; assay type: functional; details: route intraperitoneal
Mus musculus [23] = test: Activity in CD1 mouse assessed as stereotypy at 100 mg/kg, ip after 4 hrs; assay type: functional, organism-based; set-up: dose 100 mg/kg
[24] = biological target: Sodium-dependent noradrenaline transporter (Homo sapiens, UniProt P23975); test: Displacement of [3H]nisoxetine from NET
Sequence of Sodium-dependent noradrenaline transporter (P23975 whole entry): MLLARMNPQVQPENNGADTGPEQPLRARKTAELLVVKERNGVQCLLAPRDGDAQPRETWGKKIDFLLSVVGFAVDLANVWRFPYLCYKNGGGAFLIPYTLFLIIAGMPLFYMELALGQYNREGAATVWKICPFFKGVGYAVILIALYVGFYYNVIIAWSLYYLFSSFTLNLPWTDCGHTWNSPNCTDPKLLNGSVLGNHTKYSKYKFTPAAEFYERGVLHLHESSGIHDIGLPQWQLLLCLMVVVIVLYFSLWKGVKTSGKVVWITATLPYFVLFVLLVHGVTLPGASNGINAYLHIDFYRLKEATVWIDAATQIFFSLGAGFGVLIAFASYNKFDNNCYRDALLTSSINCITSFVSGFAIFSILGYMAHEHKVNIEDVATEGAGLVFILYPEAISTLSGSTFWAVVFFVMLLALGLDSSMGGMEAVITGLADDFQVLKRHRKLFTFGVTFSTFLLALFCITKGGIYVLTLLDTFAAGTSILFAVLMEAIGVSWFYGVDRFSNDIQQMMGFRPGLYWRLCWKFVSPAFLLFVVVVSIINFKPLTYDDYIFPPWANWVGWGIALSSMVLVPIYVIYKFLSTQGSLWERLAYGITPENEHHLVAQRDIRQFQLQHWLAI

Mus musculus [25] = test: Locomotor activity in CD1 mouse assessed as stimulation at 10 mg/kg, ip after 1 hr relative to control; assay type: functional; details: route intraperitoneal
Mus musculus [26] = test: Locomotor activity in CD1 mouse assessed as stimulation at 30 mg/kg, ip after 3 hrs relative to control; assay type: functional; details: route intraperitoneal
Mus musculus [27] = test: Locomotor activity in CD1 mouse assessed as stimulation at 100 mg/kg, ip after 2 hrs relative to control; assay type: functional; details: route intraperitoneal
Mus musculus [28] = test: Locomotor activity in CD1 mouse assessed as stimulation at 100 mg/kg, ip after 3 hrs relative to control; assay type: functional; details: route intraperitoneal
Mus musculus [29] = test: Activity in CD1 mouse assessed as convulsions at 100 mg/kg, ip after 4 hrs; assay type: functional, organism-based; set-up: dose 100 mg/kg
Mus musculus [30] = test: Activity in CD1 mouse assessed as hyperactivity at 10 mg/kg, ip after 4 hrs; assay type: functional, organism-based; set-up: dose 10 mg/kg
Rattus norvegicus [31] = test: Drug discrimination effect in CD Albino rat assessed as percent of rat choosing cocaine lever at 1 mg/kg, ip; assay type: functional; details: route intraperitoneal
Rattus norvegicus [32] = test: Drug discrimination effect in CD Albino rat assessed as percent of rat choosing cocaine lever at 1.7 mg/kg, ip; assay type: functional; details: route intraperitoneal
Mus musculus [33] = test: Activity in CD1 mouse assessed as circling at 10 mg/kg, ip after 4 hrs; assay type: functional, organism-based; set-up: dose 10 mg/kg
[34] = biological target: Sodium-dependent serotonin transporter (Homo sapiens, UniProt P31645)
Sequence of Sodium-dependent serotonin transporter (P31645 whole entry): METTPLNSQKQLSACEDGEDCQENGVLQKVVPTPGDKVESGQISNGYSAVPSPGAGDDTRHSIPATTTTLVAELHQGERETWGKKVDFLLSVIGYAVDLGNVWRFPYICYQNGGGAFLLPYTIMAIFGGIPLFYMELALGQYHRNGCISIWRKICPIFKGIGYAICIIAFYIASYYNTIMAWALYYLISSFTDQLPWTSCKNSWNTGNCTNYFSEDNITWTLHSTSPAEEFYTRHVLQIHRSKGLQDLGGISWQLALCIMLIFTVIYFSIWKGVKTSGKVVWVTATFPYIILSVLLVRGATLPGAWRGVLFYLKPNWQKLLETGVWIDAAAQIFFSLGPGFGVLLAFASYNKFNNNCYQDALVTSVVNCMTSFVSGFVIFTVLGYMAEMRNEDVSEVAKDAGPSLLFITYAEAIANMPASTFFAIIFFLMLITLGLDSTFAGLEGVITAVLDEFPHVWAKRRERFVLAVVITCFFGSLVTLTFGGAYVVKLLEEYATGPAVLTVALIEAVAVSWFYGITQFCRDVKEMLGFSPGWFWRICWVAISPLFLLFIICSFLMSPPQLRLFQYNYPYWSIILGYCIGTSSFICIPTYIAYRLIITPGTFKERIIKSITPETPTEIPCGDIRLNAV
Description: Displacement of [3H]paroxetine from 5HTT

Mus musculus [35] = test: Locomotor activity in CD1 mouse assessed as stimulation at 0.3 mg/kg, ip after 2 hrs relative to control; assay type: functional; details: route intraperitoneal
Mus musculus [36] = test: Activity in CD1 mouse assessed as hyperactivity at 1 mg/kg, ip after 4 hrs; assay type: functional, organism-based; set-up: dose 1 mg/kg
Mus musculus [37] = test: Locomotor activity in CD1 mouse assessed as stimulation at 0.3 mg/kg, ip after 4 hrs relative to control; assay type: functional; details: route intraperitoneal
Mus musculus [38] = test: Locomotor activity in CD1 mouse assessed as stimulation at 1 mg/kg, ip after 1 hr relative to control; assay type: functional; details: route intraperitoneal
Mus musculus [39] = test: Locomotor activity in CD1 mouse assessed as stimulation at 1 mg/kg, ip after 3 hrs relative to control; assay type: functional; details: route intraperitoneal
Mus musculus [40] = test: Activity in CD1 mouse assessed as stereotypy at 1 mg/kg, ip after 4 hrs; assay type: functional, organism-based; set-up: dose 1 mg/kg
Rattus norvegicus [41] = test: Drug discrimination effect in CD Albino rat assessed as percent of rat choosing cocaine lever at 0.17 mg/kg, ip; assay type: functional; details: route intraperitoneal
Mus musculus [42] = test: Activity in CD1 mouse assessed as straub tail at 100 mg/kg, ip after 4 hrs; assay type: functional, organism-based; set-up: dose 100 mg/kg
Rattus norvegicus [43] = test: Drug discrimination effect in CD Albino rat assessed as percent of rat choosing cocaine lever at 0.3 mg/kg, ip; assay type: functional; details: route intraperitoneal
Mus musculus [44] = test: Locomotor activity in CD1 mouse assessed as stimulation at 1 mg/kg, ip after 2 hrs relative to control; assay type: functional; details: route intraperitoneal
Rattus norvegicus [45] = test: Drug discrimination effect in CD Albino rat assessed as percent of rat choosing cocaine lever at 0.56 mg/kg, ip; assay type: functional; details: route intraperitoneal
Mus musculus [46] = test: Locomotor activity in CD1 mouse assessed as stimulation at 1 mg/kg, ip after 4 hrs relative to control; assay type: functional; details: route intraperitoneal
Mus musculus [47] = test: Locomotor activity in CD1 mouse assessed as stimulation at 0.3 mg/kg, ip after 1 hr relative to control; assay type: functional; details: route intraperitoneal
Mus musculus [48] = test: Locomotor activity in CD1 mouse assessed as stimulation at 0.3 mg/kg, ip after 3 hrs relative to control; assay type: functional; details: route intraperitoneal
Rattus norvegicus [49] = test: Drug discrimination effect in CD Albino rat assessed as percent of rat choosing cocaine lever at 0.1 mg/kg, ip; assay type: functional; details: route intraperitoneal

Compound	Activity (Rattus norvegicus [1])	Activity (Mus musculus [3])	Activity (Rattus norvegicus [4])	Activity (Mus musculus [5])	Activity (Mus musculus [6])	Activity (Mus musculus [7])	Activity (Mus musculus [8])	Activity (Mus musculus [9])	Activity (Mus musculus [11])	ED50 (Rattus norvegicus [12])	Activity (Mus musculus [17])	ED50 (Mus musculus [18])	Activity (Mus musculus [20])	Activity (Mus musculus [21])	Activity (Mus musculus [22])	Activity (Mus musculus [23])	IC50 [24]	Ki [24]	Activity (Mus musculus [25])	Activity (Rattus norvegicus [31])	other results
COC(=O)[C@@H]1C2CCC(C[C@H]1c1ccccc1)N2C (stereo partly drawn)	13%	Active	100%	12%	Active	-39%	17%	-30%	161%	3.19 mg/kg	-13%	21.8 mg/kg	-35%	6%	6%	Active	541 nM	271 nM	43%		Activity (Mus musculus [2]): Active; IC50 [10]: 101 nM; Activity (Mus musculus [13]): 338%; Activity (Mus musculus [14]): 390%; Activity (Mus musculus [15]): 97%; Activity (Mus musculus [16]): Active; Activity (Rattus norvegicus [19]): 100%; Activity (Mus musculus [26]): 47%; Activity (Mus musculus [27]): 191%; Activity (Mus musculus [28]): 234%
COC(=O)[C@H]1[C@@H](OC(=O)c2ccccc2)C[C@@H]2CC[C@H]1N2C [COCAINE]	59%		97%	-9%	Active	14%	100%	27%	341%	2.44 mg/kg	10%	10 mg/kg	-17%	24%	-21%	Active			127%	21%	Activity (Mus musculus [29]): Active; Activity (Mus musculus [30]): Active; Activity (Mus musculus [13]): 269%; Activity (Rattus norvegicus [32]): 32%; Activity (Mus musculus [14]): 91%; Activity (Mus musculus [15]): 16%; Activity (Rattus norvegicus [19]): 82%; Activity (Mus musculus [26]): -10%; Activity (Mus musculus [27]): 391%; Activity (Mus musculus [28]): 255%
COC(=O)[C@@H]1C2CCC(C[C@H]1c1ccc(F)cc1)N2C (stereo partly drawn)	29%	Active	86%	41%	Active	-23%	187%	26%	362%	5.66 mg/kg	146%	15.6 mg/kg	16%	105%	58%	Active	1200 nM	741 nM	137%	0%	Activity (Mus musculus [33]): Active; Activity (Mus musculus [2]): Active; Activity (Mus musculus [13]): 575%; Activity (Mus musculus [14]): 73%; Activity (Mus musculus [15]): 66%; Activity (Mus musculus [16]): Active; IC50 [34]: 5060 nM; Ki [34]: 460 nM; Activity (Rattus norvegicus [19]): 38%; Activity (Mus musculus [26]): 215%; Activity (Mus musculus [27]): 340%; Activity (Mus musculus [28]): 194%
COC(=O)[C@@H]1C2CC[C@H](C[C@@H]1c1ccccc1)N2C		Active		199%		506%		660%		0.34 mg/kg	964%	1.2 mg/kg	276%	1080%	190%	Active	920 nM	550 nM	904%	100%	Activity (Mus musculus [33]): Active; Activity (Mus musculus [35]): 56%; Activity (Mus musculus [36]): Active; Activity (Mus musculus [37]): 62%; Activity (Mus musculus [29]): Active; Activity (Mus musculus [38]): 253%; Activity (Mus musculus [39]): 102%; Activity (Mus musculus [30]): Active; Activity (Mus musculus [40]): Active; Activity (Rattus norvegicus [41]): 14%; Activity (Mus musculus [42]): Active; Activity (Rattus norvegicus [43]): 36%; Activity (Mus musculus [44]): 192%; Activity (Rattus norvegicus [45]): 88%; Activity (Mus musculus [46]): 151%; Activity (Mus musculus [47]): 44%; Activity (Mus musculus [48]): 24%
COC(=O)[C@@H]1C2CC[C@H](C[C@@H]1c1ccc(C)cc1)N2C		Active		30%		460%		533%		0.31 mg/kg	343%	0.6 mg/kg	157%	476%	273%	Active	60 nM	36 nM	283%	86%	Activity (Mus musculus [35]): -3%; Activity (Mus musculus [37]): -28%; Activity (Mus musculus [38]): 305%; Activity (Mus musculus [39]): 41%; IC50 [10]: 1.7 nM; Activity (Rattus norvegicus [41]): 25%; Activity (Rattus norvegicus [43]): 57%; Activity (Mus musculus [44]): 298%; Activity (Rattus norvegicus [49]): 0%; Activity (Rattus norvegicus [45]): 71%; Activity (Mus musculus [46]): -4%; Activity (Mus musculus [47]): 19%; Activity (Mus musculus [48]): -61%
